How the values were obtained:
Fgr = Fgr (Homo sapiens, UniProt P09769); test: Z'-LYTE in vitro kinase assay; type: biochemical; conditions: data not shown
Hck = Hck (Homo sapiens, UniProt P08631); test: Z'-LYTE in vitro kinase assay; type: biochemical; conditions: data not shown
Syk = Syk (Homo sapiens, UniProt P43405); test: Z'-LYTE in vitro kinase assay; type: biochemical; conditions: data not shown
Fes = Fes (Homo sapiens, UniProt P07332); test: Z'-LYTE in vitro kinase assay; type: biochemical; conditions: data not shown
Flt3-ITD = test: Z'-LYTE in vitro kinase assay; type: biochemical; conditions: stated in words only
[1] = target: other myeloid Src-family kinases; test: In vitro kinase assay; type: biochemical; conditions: data not shown
MV4–11 AML cells = test: MV4–11 AML cell xenograft model in NSG mice; conditions: 10 mg/kg once daily oral gavage, three weeks

Hck, sequence (P08631 whole entry): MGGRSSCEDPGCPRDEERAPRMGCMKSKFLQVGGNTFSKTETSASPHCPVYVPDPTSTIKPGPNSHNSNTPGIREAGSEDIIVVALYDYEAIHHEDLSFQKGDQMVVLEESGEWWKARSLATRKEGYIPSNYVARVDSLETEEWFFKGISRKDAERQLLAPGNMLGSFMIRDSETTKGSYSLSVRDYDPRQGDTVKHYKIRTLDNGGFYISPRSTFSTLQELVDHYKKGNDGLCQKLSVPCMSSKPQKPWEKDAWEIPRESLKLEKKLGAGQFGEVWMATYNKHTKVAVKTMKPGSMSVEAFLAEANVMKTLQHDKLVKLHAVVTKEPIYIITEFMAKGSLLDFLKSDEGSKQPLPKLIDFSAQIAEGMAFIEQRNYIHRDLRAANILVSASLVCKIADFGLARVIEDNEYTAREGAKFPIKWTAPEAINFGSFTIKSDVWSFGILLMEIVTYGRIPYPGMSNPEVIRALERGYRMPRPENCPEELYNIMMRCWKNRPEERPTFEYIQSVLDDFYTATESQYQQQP
Fgr, sequence (P09769 whole entry): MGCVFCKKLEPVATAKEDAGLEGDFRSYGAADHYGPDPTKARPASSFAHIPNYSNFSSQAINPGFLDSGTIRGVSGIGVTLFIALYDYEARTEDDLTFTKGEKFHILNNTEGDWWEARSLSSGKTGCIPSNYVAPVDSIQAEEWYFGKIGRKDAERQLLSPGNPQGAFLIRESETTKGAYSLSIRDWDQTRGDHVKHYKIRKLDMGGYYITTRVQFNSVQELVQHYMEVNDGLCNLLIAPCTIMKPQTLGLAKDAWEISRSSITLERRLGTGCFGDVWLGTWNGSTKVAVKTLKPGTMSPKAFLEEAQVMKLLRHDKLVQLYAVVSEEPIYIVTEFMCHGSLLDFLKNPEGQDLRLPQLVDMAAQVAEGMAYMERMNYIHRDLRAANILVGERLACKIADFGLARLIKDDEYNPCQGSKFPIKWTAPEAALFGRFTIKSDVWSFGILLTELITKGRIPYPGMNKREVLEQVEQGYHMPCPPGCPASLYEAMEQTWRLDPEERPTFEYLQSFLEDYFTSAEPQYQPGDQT
Fes, sequence (P07332 whole entry): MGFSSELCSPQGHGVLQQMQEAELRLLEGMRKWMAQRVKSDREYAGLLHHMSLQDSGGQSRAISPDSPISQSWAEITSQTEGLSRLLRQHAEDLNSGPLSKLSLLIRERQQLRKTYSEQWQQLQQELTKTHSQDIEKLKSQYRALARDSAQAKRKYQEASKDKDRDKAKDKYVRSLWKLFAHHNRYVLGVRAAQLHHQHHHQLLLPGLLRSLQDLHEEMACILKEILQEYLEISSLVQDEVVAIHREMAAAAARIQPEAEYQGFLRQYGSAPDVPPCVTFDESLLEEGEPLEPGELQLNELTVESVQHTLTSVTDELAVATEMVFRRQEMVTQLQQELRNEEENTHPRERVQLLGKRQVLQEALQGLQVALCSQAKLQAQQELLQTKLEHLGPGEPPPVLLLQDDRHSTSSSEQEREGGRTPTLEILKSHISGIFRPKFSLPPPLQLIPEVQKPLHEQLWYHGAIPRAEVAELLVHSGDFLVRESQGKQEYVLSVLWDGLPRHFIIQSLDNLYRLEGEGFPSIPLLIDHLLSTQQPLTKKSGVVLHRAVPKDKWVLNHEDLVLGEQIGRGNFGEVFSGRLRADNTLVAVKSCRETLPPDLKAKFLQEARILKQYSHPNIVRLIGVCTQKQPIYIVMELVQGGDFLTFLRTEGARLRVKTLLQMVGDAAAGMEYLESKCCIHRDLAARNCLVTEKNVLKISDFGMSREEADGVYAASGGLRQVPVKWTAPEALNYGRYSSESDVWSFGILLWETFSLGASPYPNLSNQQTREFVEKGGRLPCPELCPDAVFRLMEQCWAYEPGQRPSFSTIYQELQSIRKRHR

inhibition of kinase in vitro (Fgr)	inhibition of kinase in vitro (Hck)	inhibition of kinase in vitro (Syk)	inhibition of kinase in vitro (Fes)	inhibition of Flt3-ITD kinase activity in vitro (Flt3-ITD)	IC50 [1] [µM]	Structure (SMILES)	MV4–11 cells in bone marrow thin sections (human CD45 immunohistochemistry) (MV4–11 AML cells)	MV4–11 cells in spleen thin sections (human CD45 immunohistochemistry) (MV4–11 AML cells)	effect on leukemic cells in the peripheral blood (MV4–11 AML cells; flow cytometry)	effect on spleen engraftment of MV4–11 cells (MV4–11 AML cells; flow cytometry)	reduction of bone marrow engraftment of MV4–11 cells (MV4–11 AML cells; flow cytometry)
does not inhibit	does not inhibit	–	–	–	–	CCN(CC)CCNC(=O)c1c(C)[nH]c(/C=C2\C(=O)Nc3ccc(F)cc32)c1C [sunitinib]	–	–	–	–	–
does not inhibit	does not inhibit	does not inhibit	does not inhibit	–	–	CC(C)(C)c1cc(NC(=O)Nc2ccc(-c3cn4c(n3)sc3cc(OCCN5CCOCC5)ccc34)cc2)no1 [quizartinib]	–	–	–	–	–
does not inhibit	does not inhibit	does not inhibit	does not inhibit	–	–	COc1cc2c(N3CCN(C(=O)Nc4ccc(OC(C)C)cc4)CC3)ncnc2cc1OCCCN1CCCCC1 [tandutinib]	–	–	–	–	–
does not inhibit	does not inhibit	does not inhibit	does not inhibit	nM inhibitor	> 100	CNC(=O)c1cc(Oc2ccc(NC(=O)Nc3ccc(Cl)c(C(F)(F)F)c3)cc2)ccn1 [sorafenib]	still stained strongly for MV4–11 cells	still stained strongly for MV4–11 cells	significant reduction	no effect	no effect

— paper PMC6130198 (ACS chemical biology, 2018)
